Results published in ChEMBL document CHEMBL1781964, “Exploring molecular shape analysis of styrylquinoline derivatives as HIV-1 integrase inhibitors” (Eur J Med Chem, 2008).

molecular target: Human immunodeficiency virus type 1 integrase (Human immunodeficiency virus 1, UniProt Q7ZJM1); assay: Inhibition of HIV1 integrase 3' processing activity
Sequence (Q7ZJM1 whole entry): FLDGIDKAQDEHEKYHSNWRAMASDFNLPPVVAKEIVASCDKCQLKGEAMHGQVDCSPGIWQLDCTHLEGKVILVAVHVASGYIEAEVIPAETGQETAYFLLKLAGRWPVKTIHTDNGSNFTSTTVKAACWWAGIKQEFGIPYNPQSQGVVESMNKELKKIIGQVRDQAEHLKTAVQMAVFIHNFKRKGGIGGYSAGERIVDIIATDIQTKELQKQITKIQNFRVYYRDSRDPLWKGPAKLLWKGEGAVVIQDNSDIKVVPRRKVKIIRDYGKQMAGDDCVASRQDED

Row | SMILES | IC50 [µM]
1 | Cc1ccc2ccc(C(=O)O)c(O)c2n1 | 100
2 | Nc1cccc2ccc(/C=C/c3ccc(O)c(O)c3)nc12 | 100
3 | Cc1cc(/C=C/c2ccc3ccc(C(=O)O)c(O)c3n2)ccc1O | 2.82
4 | Oc1ccc(/C=C/c2ccc3ccccc3n2)cc1O | 100
5 | Oc1cccc2ccc(/C=C/c3ccccc3)nc12 | 100
6 | O=[N+]([O-])c1cccc2ccc(/C=C/c3ccc(O)c(O)c3)nc12 | 100

Results, then the compound that gave them:

Row | IC50 [µM] | SMILES
7 | 100 | Cc1ccc2cccc(O)c2n1 [8-HYDROXY QUINALDINE]
8 | 100 | Oc1ccc(/C=C/c2ccc3c(Cl)cc(Cl)c(O)c3n2)cc1O
9 | 100 | CC(=O)Oc1ccc(/C=C/c2ccc3cccc(OC(C)=O)c3n2)cc1OC(C)=O
10 | 100 | Cc1ccc2cccc(OC(=O)/C=C/c3ccc(O)c(O)c3)c2n1
11 | 0.302 | O=C(O)c1ccc2ccc(/C=C/c3ccc(O)c(O)c3O)nc2c1O
12 | 100 | CC(=O)Oc1cccc2ccc(/C=C/c3ccccc3)nc12
13 | 100 | COC(=O)c1ccc2ccc(/C=C/c3ccc(O)c(O)c3)nc2c1O
14 | 100 | COc1ccc(/C=C/C(=O)Oc2cccc3ccc(C)nc23)cc1OC
15 | 100 | Oc1cccc2ccc(/C=C/c3ccc4cccc(O)c4n3)nc12
